Assay results from patent publication US20070203233A1, “NOVEL 2-(alpha-N-PENTANONYL)BENZOATES, THEIR PREPARATION AND USE” (priority 2004, published 2007).
Marks after values point to notes of the source that are not given here.

Legend:
The Stability to Light = type: physicochemical; conditions: 10 days, HPLC
Thermal Stability = type: physicochemical; conditions: 60° C., 10 days, HPLC
[1] = system: model rats of middle cerebral artery thrombosis (MCAT); test: Effects on neural symptoms of MCAT rats; type: in vivo, SD rats; parameters: key to Scores 6 hours / Scores 24 hours: 0/1 per test, summed (max 4); higher = more severe behavioral disorder; conditions: for Scores 6 hours: behavioral score 6 h after operation (full mark 4); for Scores 24 hours: behavioral score 24 h after operation (full mark 4); for % inhibition at hour 24: vs. model group
Protocol: (1) Grouping and administration: […] Preventive administration was conducted by gavage one time per day for 3 days prior to the model being established. The model was established on day 4, and a dosage of one day was administered by gavage immediately after the model was established. Another dosage of one day was again administered by gavage 12 hours after the model was established. Equivalent amount of the vehicle was administered to the control group. […] Description of technique and early neuropathological consequences following middle cerebral artery occlusion. J Cereb Blood Flow Metab, 1981, 1: 53), and fixed in lateral decubitus position. A bowtype incision of 1.5 cm long was made at the midpoint between canthus and exterior auditory canal. Temporalis was broken and incised to expose temporal bone. […] The filter paper was removed after 30 min when the vascular became black. The localized tissue was washed with physiological brine, and sutured layer by layer. Then rats were placed back into the cages. By following the modified method of Bederson et al. […] (2) The animals were placed onto a smooth ground, and the resistance of contralateral shoulder to push was examined. “0” was recorded if the resistance of both shoulders were equal and strong; and “1” was recorded if the resistance of contralateral shoulder to push was decreased. […] (4) The tail of the rat was lifted 30 cm high away from the ground, and “1” was recorded if the animals ceaselessly circled contralaterally. “4” was full mark in accordance with the above-mentioned standard. The higher the score was, more severe the behavioral disorder of the animal was. 4. Results: The behavioral scores in each group were compared by student t test.

[2] = system: model rats of middle cerebral artery thrombosis (MCAT); test: Effects on cerebral infarct area of MCAT rats; type: in vivo, SD rats; conditions: for Cerebral infarct tissue weight/total brain weight (%): 24 h after operation, TTC staining; for Inhibition (%): cerebral infarct vs. model group
[3] = system: thrombus of artery-vein bypass in rats; test: Effects on thrombosis of artery-vein bypass in rats; type: in vivo, SD rats; conditions: for Dry-weight of thrombus / Wet-weight of thrombus: once per day for 3 days; for Inhibition (%) of dry-weight of thrombus / Inhibition (%) of wet-weight of thrombus: vs. thrombus model group
Protocol: Testing methods are described in Chen-Qi, “Methodology for Pharmacological Research of Chinese Medicine”,People's Medical Publishing House, Sep. 1993, 1st ed., page 510. […] Equivalent amount of the vehicle was administered to the thrombus model group. The operation was conducted immediately after the final administration. […] The operation was conducted to separate the right common carotid artery and the left external jugular vein. A pre-weighed suture # 0 of 8 cm long was placed into the middle part of a polyethylene tube of 10 cm long. Then the tube was filled with normal saline, and connected at both ends to the cannula of 3 cm long filled with normal saline. One end of the tube was inserted into the left external jugular vein, and another end was inserted into the right common carotid artery. The blood flowed from the right common carotid artery to the polyethylene tube, and then flow back to the left external jugular vein, so as to construct a bypass circulation. […] The wet-weight of the thrombus was obtained by subtracting the weight of the suture and the paper from this total wet weight. […] The thrombus was taken out and weighed to obtain a total dry weight. The dry weight of the thrombus was obtained by subtracting the weight of the suture and the paper form this total dry weight. The results in each group were compared by student's t test. […] Testing Results

in vivo = conditions: both, ICR, mouse, po
[4] = viscous liquid; cited from earlier work

Compound | Scores 6 hours ([1]; 50 mg/kg by gavage) | Scores 24 hours ([1]; 50 mg/kg by gavage) | Scores 6 hours ([1]; 100 mg/kg by gavage) | Scores 24 hours ([1]; 100 mg/kg by gavage) | Scores 6 hours ([1]; 200 mg/kg by gavage) | Scores 24 hours ([1]; 200 mg/kg by gavage) | Cerebral infarct tissue weight/total brain weight (%) ([2]; 50 mg/kg by gavage) | Inhibition (%) ([2]; 50 mg/kg by gavage) | Cerebral infarct tissue weight/total brain weight (%) ([2]; 100 mg/kg by gavage) | Inhibition (%) ([2]; 100 mg/kg by gavage) | Cerebral infarct tissue weight/total brain weight (%) ([2]; 200 mg/kg by gavage) | Inhibition (%) ([2]; 200 mg/kg by gavage) | other results
CCCCC(=O)c1ccccc1C(=O)O [Calcium 2-(α-n-pentanonyl)benzoate, calcium 2-(α-n-pentanonyl)benzoate] | 3.18 ± 0.60 | 2.73 ± 0.65**^,s | 3.40 ± 0.52 | 2.90 ± 0.57 | 3.27 ± 0.79 | 2.45 ± 0.82 | 5.01 ± 1.79 % | 32.39% | 5.23 ± 2.04 % | 34.13% | 4.65 ± 2.13 % | 38.90% | decomposed product detected, stability to light (in words) (The Stability to Light): no decomposed product; decomposed product detected, thermal stability (in words) (Thermal Stability): no decomposed product; cerebral infarct as compared with the model group (in words) ([2]; 50 mg/kg, P<0.05): significantly reduced; Dry-weight of thrombus ([3]; 50 mg/kg by gavage): 40.2 ± 18.0 mg; Wet-weight of thrombus ([3]; 50 mg/kg by gavage): 199.8 ± 30.4 mg; Inhibition (%) of dry-weight of thrombus ([3]; 50 mg/kg by gavage): 21.64%; Inhibition (%) of wet-weight of thrombus ([3]; 50 mg/kg by gavage): 22.92%; Dry-weight of thrombus ([3]; 100 mg/kg by gavage): 34.2 ± 13.1 mg; Wet-weight of thrombus ([3]; 100 mg/kg by gavage): 189.8 ± 52.3 mg; Inhibition (%) of dry-weight of thrombus ([3]; 100 mg/kg by gavage): 33.33%; Inhibition (%) of wet-weight of thrombus ([3]; 100 mg/kg by gavage): 26.77%; Dry-weight of thrombus ([3]; 200 mg/kg by gavage): 30.4 ± 13.9 mg; Wet-weight of thrombus ([3]; 200 mg/kg by gavage): 163.2 ± 64.4 mg; Inhibition (%) of dry-weight of thrombus ([3]; 200 mg/kg by gavage): 40.74%; Inhibition (%) of wet-weight of thrombus ([3]; 200 mg/kg by gavage): 37.04%; LD50 at 7 days (in vivo): 2680 mg/kg
CCCCC1OC(=O)c2ccccc21 (racemic) [DL-3-n-butylphthalide] | 3.36 ± 0.81 | 3.09 ± 0.54 | 3.36 ± 0.50 | 3.09 ± 0.70 | 3.36 ± 0.67 | 3.00 ± 0.89 | 5.66 ± 2.81% | 23.62% | 5.81 ± 1.49 % | 26.83% | 5.52 ± 1.78 % | 27.46% | % inhibition at hour 24 ([1]; 50 mg/kg by gavage): 15.11%; % inhibition at hour 24 ([1]; 100 mg/kg by gavage): 17.16%; % inhibition at hour 24 ([1]; 200 mg/kg by gavage): 19.57%; solubility in water (in words) [4]: insoluble in water
